Measured values as given in US20140141099A1, “DRUG DISCOVERY METHODS” (Vertex Pharmaceuticals Incorporated, priority 2007, published 2014).

The molecules below were run against T1, Aurora-2 (Aurora A) (Homo sapiens, UniProt O14965) (assay: Aurora-2 (Aurora A) Inhibition Assay (coupled enzyme assay)). Conditions: read-out: Aurora A Ki.
T1 sequence (O14965 1-403): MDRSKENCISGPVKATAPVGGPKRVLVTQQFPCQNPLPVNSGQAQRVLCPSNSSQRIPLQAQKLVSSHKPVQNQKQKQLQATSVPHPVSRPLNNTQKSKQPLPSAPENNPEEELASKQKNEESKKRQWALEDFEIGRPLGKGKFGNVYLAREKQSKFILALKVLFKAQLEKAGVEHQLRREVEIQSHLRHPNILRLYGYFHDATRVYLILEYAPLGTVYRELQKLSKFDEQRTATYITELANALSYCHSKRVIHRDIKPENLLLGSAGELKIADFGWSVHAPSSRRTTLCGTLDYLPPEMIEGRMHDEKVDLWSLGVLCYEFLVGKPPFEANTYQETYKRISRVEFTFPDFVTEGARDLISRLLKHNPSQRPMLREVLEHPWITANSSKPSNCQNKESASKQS
Assay type: biochemical
Procedure: Assays were carried out in a mixture of 100 mM Hepes (pH7.5), 10 mM MgCl2, 1 mM DTT, 25 mM NaCl, 2.5 mM phosphoenolpyruvate, 300 μM NADH, 30 μg/ml pyruvate kinase and 10 μg/ml lactate dehydrogenase. […] Assays were carried out at 30° C. and in the presence of 40 nM Aurora-2.
An assay stock buffer solution was prepared containing all of the reagents listed above, with the exception of Aurora-2 and the test compound of interest. […] The plate was preincubated for 10 minutes at 30° C. and the reaction initiated by addition of 10 μl of Aurora-2. Initial reaction rates were determined with a Molecular Devices SpectraMax Plus plate reader over a 10 minute time course. IC50 and Ki data were calculated from non-linear regression analysis using the Prism software package (GraphPad Prism version 3.0cx for Macintosh, GraphPad Software, San Diego Calif., USA).

Row | Ki | Compound
1 | 0.595 nM | CCC(=O)Nc1ccc(Sc2nc(Nc3cc(C)n[nH]3)cc(N3CCC(O)(C(C)(C)C)CC3)n2)cc1 [Compound 14]
2 | 8.85 nM | CCC(=O)Nc1ccc(Sc2nc(NCCN3CCCCC3)cc(Nc3cc(C)n[nH]3)n2)cc1 [Compound 1]
3 | 1.98 nM | CCC(=O)Nc1ccc(Sc2nc(Nc3cc(C)n[nH]3)cc(N3CCN(C(C)(C)CF)CC3)n2)cc1 [Compound 10]
4 | 1.35 nM | CCC(=O)Nc1ccc(Sc2nc(Nc3cc(C)n[nH]3)cc(N3CC(C)(OC(C)C)C3)n2)cc1 [Compound 28]
5 | 8.5 nM | COc1cccc(Sc2nc(NC3=NN=C(C)C3)cc(N3CCN(C(C)(C)C)CC3)n2)c1 [Compound 4]
6 | 4.6 nM | CCC(=O)Nc1ccc(Sc2nc(Nc3cc(C)n[nH]3)cc(N3CCC(N4CCCC4)CC3)n2)cc1 [Compound 7]
7 | 2.75 nM | CCC(=O)Nc1ccc(Sc2nc(Nc3cc(C4CC4)n[nH]3)cc(N3CCC(N4CCCC4)CC3)n2)cc1 [Compound 18]
8 | 0.35 nM | Cc1cc(Nc2cc(N3CCC(F)C3)nc(Sc3ccc(NC(=O)CC(F)(F)F)cc3)n2)[nH]n1 (stereo not drawn) [Compound 32]
9 | 0.735 nM | CCC(=O)Nc1ccc(Sc2nc(Nc3cc(C)n[nH]3)cc(N3CC4(C3)OCC4(C)C)n2)cc1 [Compound 26]
10 | 0.35 nM | CCC(=O)Nc1ccc(Sc2nc(Nc3cc(C)n[nH]3)cc(N3CCC(O)(C(C)(C)C)C3)n2)cc1 (stereo not drawn) [Compound 27]
11 | 2.5 nM | CCC(=O)Nc1ccc(Sc2nc(Nc3cc(C)n[nH]3)cc(N3CCC(N(C)C(C)(C)C)CC3)n2)cc1 [Compound 15]
12 | 3.47 nM | Cc1cc(Nc2cc(N3CCN(C(C)(C)C)CC3)nc(Sc3ccc(NC(=O)C4CCCC4)cc3)n2)[nH]n1 [Compound 5]
13 | 2.6 nM | CCC(=O)Nc1ccc(Sc2nc(Nc3cc(C)n[nH]3)cc(N3CCN(C(C)(C)CC)CC3)n2)cc1 [Compound 9]
14 | 0.68 nM | CCC(=O)Nc1ccc(Sc2nc(Nc3cc(C)n[nH]3)cc(N3CC(C)(N4CCCC4)C3)n2)cc1 [Compound 22]
15 | 0.63 nM | Cc1cc(Nc2cc(N3CC(O)(C4CC4)C3)nc(Sc3ccc4ccccc4c3)n2)n[nH]1 [Compound 34]

Row | Compound | Ki
16 | Cc1cc(Nc2cc(N3CC(O)(C4CC4)C3)nc(Sc3ccc(NC(=O)C4CC4)cc3)n2)n[nH]1 [Compound 31] | 0.865 nM
17 | Cc1cc(Nc2cc(N3CCC3)nc(Sc3ccc(NC(=O)c4ccccc4C(F)(F)F)cc3)n2)[nH]n1 [Compound 13] | 0.382 nM
18 | Cc1cc(Nc2cc(N3CC(F)(C4CC4)C3)nc(Sc3ccc(NC(=O)CC(F)(F)F)cc3)n2)[nH]n1 [Compound 35] | 0.354 nM

What follows are molecules tested against Aurora-1 (Aurora B) (Homo sapiens, UniProt Q96GD4) (assay: Aurora-1 (Aurora B) Inhibition Assay (Radiometric)). Conditions: not given.
Assay type: biochemical
Procedure: An assay buffer solution was prepared which consisted of 25 mM HEPES (pH 7.5), 10 mM MgCl2, 0.1% BSA and 10% glycerol. […] To 22 μL of the Aurora-B solution, in a 96-well plate, was added 2 μl of a compound stock solution in DMSO and the mixture allowed to equilibrate for 10 minutes at 25° C. The enzyme reaction was initiated by the addition of 16 μl stock [γ-^33P]-ATP solution (˜20 nCi/μL) prepared in assay buffer, to a final assay concentration of 800 μM. The reaction was stopped after 3 hours by the addition of 16 μL 500 mM phosphoric acid and the levels of ^33P incorporation into the peptide substrate were determined by the following method.
A phosphocellulose 96-well plate (Millipore, Cat no. MAPHNOB50) was pre-treated with 100 μL of a 100 mM phosphoric acid prior to the addition of the enzyme reaction mixture (40 μL). The solution was left to soak on to the phosphocellulose membrane for 30 minutes and the plate subsequently washed four times with 200 μL of a 100 mM phosphoric acid. […] Levels of non-enzyme catalyzed background radioactivity were determined by adding 16 μL of the 500 mM phosphoric acid to control wells, containing all assay components (which acts to denature the enzyme), prior to the addition of the [γ-^33P]-ATP solution. Levels of enzyme catalyzed ^33P incorporation were calculated by subtracting mean background counts from those measured at each inhibitor concentration. […] Ki values were calculated from initial rate data by non-linear regression using the Prism software package (Prism 3.0, Graphpad Software, San Diego, Calif.).

Chain of Aurora-1 (Aurora B) (Q96GD4 whole entry): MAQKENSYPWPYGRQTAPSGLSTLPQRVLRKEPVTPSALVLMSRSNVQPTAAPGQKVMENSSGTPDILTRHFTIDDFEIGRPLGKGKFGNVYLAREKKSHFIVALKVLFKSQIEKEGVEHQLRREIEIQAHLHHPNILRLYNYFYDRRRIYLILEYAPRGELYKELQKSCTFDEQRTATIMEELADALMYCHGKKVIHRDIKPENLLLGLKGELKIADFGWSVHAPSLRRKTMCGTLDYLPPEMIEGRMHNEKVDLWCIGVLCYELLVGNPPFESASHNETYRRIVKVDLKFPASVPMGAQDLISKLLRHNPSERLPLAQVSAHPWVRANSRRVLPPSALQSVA

Row | Ki | Compound
19 | 13.5 nM | CCC(=O)Nc1ccc(Sc2nc(Nc3cc(C)n[nH]3)cc(N3CCC(O)(C(C)(C)C)CC3)n2)cc1 [Compound 14]
20 | 34.5 nM | CCC(=O)Nc1ccc(Sc2nc(NCCN3CCCCC3)cc(Nc3cc(C)n[nH]3)n2)cc1 [Compound 1]
21 | 22.5 nM | CCC(=O)Nc1ccc(Sc2nc(Nc3cc(C)n[nH]3)cc(N3CCN(C(C)(C)CF)CC3)n2)cc1 [Compound 10]
22 | 14.5 nM | CCC(=O)Nc1ccc(Sc2nc(Nc3cc(C)n[nH]3)cc(N3CC(C)(OC(C)C)C3)n2)cc1 [Compound 28]
23 | 145 nM | COc1cccc(Sc2nc(NC3=NN=C(C)C3)cc(N3CCN(C(C)(C)C)CC3)n2)c1 [Compound 4]
24 | 50.3 nM | CCC(=O)Nc1ccc(Sc2nc(Nc3cc(C)n[nH]3)cc(N3CCC(N4CCCC4)CC3)n2)cc1 [Compound 7]
25 | 14.5 nM | CCC(=O)Nc1ccc(Sc2nc(Nc3cc(C4CC4)n[nH]3)cc(N3CCC(N4CCCC4)CC3)n2)cc1 [Compound 18]
26 | 4 nM | Cc1cc(Nc2cc(N3CCC(F)C3)nc(Sc3ccc(NC(=O)CC(F)(F)F)cc3)n2)[nH]n1 (stereo not drawn) [Compound 32]
27 | 25 nM | CCC(=O)Nc1ccc(Sc2nc(Nc3cc(C)n[nH]3)cc(N3CC4(C3)OCC4(C)C)n2)cc1 [Compound 26]
28 | 102 nM | CCC(=O)Nc1ccc(Sc2nc(Nc3cc(C)n[nH]3)cc(N3CCC(O)(C(C)(C)C)C3)n2)cc1 (stereo not drawn) [Compound 27]
29 | 31.5 nM | CCC(=O)Nc1ccc(Sc2nc(Nc3cc(C)n[nH]3)cc(N3CCC(N(C)C(C)(C)C)CC3)n2)cc1 [Compound 15]
30 | 21.2 nM | Cc1cc(Nc2cc(N3CCN(C(C)(C)C)CC3)nc(Sc3ccc(NC(=O)C4CCCC4)cc3)n2)[nH]n1 [Compound 5]
31 | 19.3 nM | CCC(=O)Nc1ccc(Sc2nc(Nc3cc(C)n[nH]3)cc(N3CCN(C(C)(C)CC)CC3)n2)cc1 [Compound 9]
32 | 5 nM | CCC(=O)Nc1ccc(Sc2nc(Nc3cc(C)n[nH]3)cc(N3CC(C)(N4CCCC4)C3)n2)cc1 [Compound 22]
33 | 51 nM | Cc1cc(Nc2cc(N3CC(O)(C4CC4)C3)nc(Sc3ccc4ccccc4c3)n2)n[nH]1 [Compound 34]

Row | Compound | Ki
34 | Cc1cc(Nc2cc(N3CC(O)(C4CC4)C3)nc(Sc3ccc(NC(=O)C4CC4)cc3)n2)n[nH]1 [Compound 31] | 7.05 nM
35 | Cc1cc(Nc2cc(N3CCC3)nc(Sc3ccc(NC(=O)c4ccccc4C(F)(F)F)cc3)n2)[nH]n1 [Compound 13] | 4.47 nM
36 | Cc1cc(Nc2cc(N3CC(F)(C4CC4)C3)nc(Sc3ccc(NC(=O)CC(F)(F)F)cc3)n2)[nH]n1 [Compound 35] | 6.78 nM
